Read-outs that look alike come from different tables or passages of the source.
Tests used:
Ptx-R PC3 cells [1] = assay: Growth of Paclitaxel resistant Ptx-R PC3 cells with chemotherapeutic agents; assay type: cell-based, human; conditions: read-out: IC50 (cell growth)
Source text: (§1) PC3 cells cultured in vitro were selected for resistance to Paclitaxel (Ptx-R).

PC3 cells [2] = assay: Growth of PC3 cells with chemotherapeutic agents; assay type: cell-based, human; conditions: read-out: IC50 (cell growth)
Source text: as §1

PC3 cells [3] = assay: PC3 viable cells and apoptosis after transfection plus Paclitaxel; conditions: Homo sapiens, PC-3, 72 h, read-out: reduction of viable cell count
Procedure: PC3 cells cultured in vitro were transfected at concentrations of IGF-IR antisense oligonucleotide (ATL1101) or control oligodeoxynucleotide (ISIS 306064) ranging from 12.5 nM to 50 nM or oligofectamine control once per day on two sequential days. After the 2nd transfection, the PC3 cells were treated with concentrations of between 0.1 to 50 nM Paclitaxel. The number of viable cells remaining were determined 72 hours after Paclitaxel treatment.

IGF-IRβ subunit protein = IGF-IRβ subunit protein in PC3 Ptx-R cells; assay type: cell-based, human; conditions: 10 to 200 nM, compared to oligofectamine transfection reagent
Source text: (§2) The PC3 Ptx-R cells retain sensitivity to ATL1101-induced IGF-IR down regulation at the mRNA and protein level as shown in FIGS. 11A-C. […] ATL1101 and the control oligodeoxynucleotide ISIS 306064 had no effect on either of the alternative spliced isoform transcripts of the insulin receptor, IR-A, IR-B or IR-β protein or vinculin protein levels.

IGF-IR mRNA [4] = assay: IGF-IR mRNA expression in transfected LNCaP and PC-3 cells, quantitative RT-PCR; assay type: cell-based, human; conditions: LNCaP and PC-3 cells, maximal doses tested
Procedure: (§3) Established methods were used to test the activity of IGF-IR antisense oligonucleotide on LNCaP and PC-3 cell growth (crystal violet assay) and apoptosis (FACS). Dose- and sequence-specific suppression of IGF-IR mRNA and protein expression in ATL1101-treated LNCaP and PC3 PC cell lines in vitro were observed by QT-PCR and western blotting. Effects of the IGF-IR antisense oligonucleotide on various putative targets, including IGF-IR and downstream targets were evaluated using western blotting.
FIGS. 1A(i)-1A(ii) show the sequence-specific and dose-dependent suppression of IGF-IR mRNA expression levels by ATL1101 in LNCaP (FIG. 1A (i)) and PC-3 (FIG. 1A (ii)) cells. […] One day after treatment, total RNA was extracted, and IGF-IR mRNA expression was analyzed by quantitative RT-PCR. IGF-IR mRNA levels were normalized to levels of GAPDH mRNA and expressed here as mean±SE. ***, p<0.001 differ from control (oligofectamine only) by Student's t test. “Control” cells were treated with oligofectamine only. In LNCaP cells, IGF-IR expression was >70% suppressed by 10 nM ATL1101 and >90% at 200 nM ATL1101. In PC3 cells, IGF-IR expression was suppressed ˜40% at 10 nM ATL1101, >50% at 50 nM ATL1101 and ˜80% at 200 nM. Control oligodeoxynucleotide (ISIS 306064) did suppress IGF-IR mRNA expression but by less than 25% at maximal doses tested

IGF-IR mRNA [5] = assay: IGF-IR mRNA in PC3 Ptx-R cells; assay type: cell-based, human; conditions: 10 to 200 nM, compared to oligofectamine transfection reagent
Source text: as §2

PC3 cells [6] = assay: PC3 cell viability, crystal violet assay; assay type: cell-based, human; conditions: three days after treatment
Procedure: as §3
(§4) Cells were transfected with indicated concentrations of ATL1101, control oligodeoxynucleotides or oligofectamine as in FIGS. 1A(i)-1A(ii). Three days after treatment, cell viability was determined by crystal violet assay. Viable cell density was normalized to that of cells treated with oligofectamine. Points, means of triplicate analysis; bars, SE. *, p<0.05 differs from control oligodeoxynucleotide treatment group. **, p<0.01 differs from control oligodeoxynucleotide treatment group by Student's t test.

Ptx-R PC3 cells [7] = assay: Ptx-R PC3 viable cells after transfection with or without Paclitaxel; assay type: cell-based, human; conditions: 100 nM Paclitaxel and 25 nM oligonucleotide
Procedure: The number of viable PC3 and PtxR PC3 cells was determined 72 hours after the second transfection.
[…] The number of viable cells remaining was determined 72 hours after the second transfection treatment. ATL1101 treatment enhances the Ptx-R sensitivity to Paclitaxel under standard culture conditions. For example, there was approximately 45% cell viability with 100 nM Paclitaxel and 25 nM control oligodeoxynucleotide whereas, only 25 nM Paclitaxel is needed in the presence of 25 nM ATL1101 to produce the same reduction in cell viability.

PC3 tumors = assay: PC-3 xenograft with Paclitaxel, mean tumor volume; assay type: in vivo, mice; conditions: 15 mg/kg i.p. oligonucleotide plus Paclitaxel
Source text: In vivo treatments in a PC-3 xenograft model were done substantially as described by Zellweger et al., 2001. PC3 cells (2×10^6 cells) were xenografted by subcutaneous injection into recipient 6-8 week-old athymic nude (nu/nu) mice. When tumors reached 200 mm^3, mice were randomly assigned to one of two arms for treatment with 2′-MOE-modified IGF-IR antisense oligonucleotide (ATL1101) plus Paclitaxel, or mismatch control oligodeoxynucleotide ISIS 306064 plus Paclitaxel. Each experimental group consisted of 10 mice. After randomization, 15 mg/kg of ATL1101 antisense oligonucleotide or mismatch control oligonucleotide were injected intraperitoneal (i.p.) into each mouse once daily for the first 5 days and 3 times a week (every other day) thereafter for 7 weeks. On days 7, 9, 11, and on days 21, 23, and 25, 0.5 mg of polymeric micellar Paclitaxel was administered once daily by i.v. injection. Mean Tumor volume was measured once weekly for 8 weeks and calculated by the formula length×width×depth×0.5236.
In PC3 mice, after 5 weeks of treatment, mean tumor size in mice treated with Paclitaxel and mismatch control oligodeoxynucleotide was 326+/−40.9 mm^3 compared with 175+/−20.1 mm^3 in mice treated with Paclitaxel and ATL1101, or 53.7% of control (p<0.01). After 8 weeks of treatment, mean tumor size in mice treated with Paclitaxel and mismatch control oligodeoxynucleotide was 1417+/−222 mm^3 compared with 507+/−79.3 mm^3 in mice treated with Paclitaxel and ATL1101, or 35.8% of control (p<0.01).

LNCaP cells [8] = assay: LNCaP cell cycle and apoptosis, flow cytometry with propidium iodide; assay type: cell-based, human; conditions: 100 nM
Procedure: as §3
(§5) The Effect of IGF-IR silencing with IGF-IR antisense oligonucleotide (ATL1101) on LNCaP and PC3 cell apoptosis and cell cycle is shown in FIGS. 4A(i)-(ii), 4B, 4C(i)-(ii), and Table 2. Cells were transfected with indicated concentrations of ATL1101, control oligodeoxynucleotide or oligofectamine as in FIGS. 1A(i)-1B(ii). Two days after treatment, cell cycle analysis was determined by flow cytometry using propidium iodide staining. […] In FIGS. 4C(i)-(ii), LNCaP (FIG. 4C (i)) or PC-3 (FIG. 4C (ii)) cells were transfected with indicated concentration of ATL1101 or control oligodeoxynucleotide (ISIS 306064) for two days. Cells were then cultured in FBS media for one day and in serum-free media for one day. Whole cell lysates (30 μg) were subjected to SDS-PAGE and immunoblotted to assess Cyclin D1, Cyclin E, p-RB, total Rb, and p27 protein levels. Oligo, oligofectamine treated cells only.

LNCaP cells [9] = assay: LNCaP cell viability, crystal violet assay; assay type: cell-based, human; conditions: three days after treatment
Procedure: as §3, §4

PC3 cells [10] = assay: PC3 cell cycle and apoptosis, flow cytometry with propidium iodide; assay type: cell-based, human; conditions: PC3, FBS condition, 200 nM
Procedure: as §3, §5

[11] = tested on: insulin receptor IR-A, IR-B, IR-β protein; assay: Insulin receptor transcripts and protein in PC3 Ptx-R cells; assay type: cell-based, human
Source text: as §2

[12] = tested on: IGF-IRβ, p-AKT, p-ERK1/2, cleaved PARP; assay: Intracellular signaling in LNCaP and PC3 cells, immunoblot; assay type: cell-based, human; conditions: 100 nM
Procedure: The suppression of intracellular signaling in IGF-IR antisense oligonucleotide-treated LNCaP (FIG. 3A) and PC3 (FIG. 3B) in vitro is shown in FIGS. 3A-3B. LNCaP or PC3 cells were transfected with 100 nM ATL1101 or control oligodeoxynucleotide (ISIS 306064) for two days. Cells were then cultured in FBS media for one day and in serum-free media for one day. Whole cell lysates (30 μg) were subjected to SDS-PAGE and immunoblotted to assess IGF-IRβ, p-AKT, total AKT, p-ERK1/2, total ERK1/2, cleaved PARP, and vinculin protein levels. Oligo, oligofectamine treated cells only.

human IGF-IR mRNA = assay: Antisense inhibition of human IGF-IR mRNA levels by quantitative RT-PCR (Table 1); assay type: cell-based; design: %INHIB (human IGF-IR mRNA levels): concentration or dose not given beside the values; conditions: for %INHIB (human IGF-IR mRNA levels): quantitative RT-PCR, averages from 3 experiments; for inhibition of IGF-IR expression (lead compounds): as shown in Table 1
[13] = Homo sapiens, PC-3, standard culture conditions

## O=C1c2c(O)ccc(O)c2C(=O)c2c(NCCNCCO)ccc(NCCNCCO)c21 [Mitoxantrone]
Ptx-R PC3 cells [1]; [13]
  IC50: 376 nM
PC3 cells [2]; [13]
  IC50: 8.8 nM

## CC(=O)O[C@H]1C(=O)[C@@]2(C)[C@H]([C@H](OC(=O)c3ccccc3)[C@]3(O)C[C@H](OC(=O)[C@H](O)[C@@H](NC(=O)c4ccccc4)c4ccccc4)C(C)=C1C3(C)C)[C@]1(OC(C)=O)CO[C@@H]1C[C@@H]2O [Paclitaxel]
Ptx-R PC3 cells [1]; [13]
  IC50: 50.3 nM
PC3 cells [2]; [13]
  IC50: 2.56 nM
PC3 cells [3]
  cytotoxicity at 0.0001 µM: ~5%

## ISIS 306064: 8 nucleotide mismatch control oligonucleotide; Negative Control ODN (CCAATGATAACAAACGCGGA; chemistry not given here) [reference compound]
IGF-IRβ subunit protein
  IGF-IRβ subunit protein levels: no effect
IGF-IR mRNA [4]
  suppression of IGF-IR mRNA expression: less than 25%
IGF-IR mRNA [5]
  IGF-IR mRNA levels: no effect
PC3 cells [6]
  cytotoxic effect on cell viability: dose-dependent cytotoxic effect
Ptx-R PC3 cells [7]
  cell viability: approximately 45%
PC3 tumors; after 5 weeks of treatment
  mean tumor size: 326+/−40.9 mm^3
PC3 tumors; after 8 weeks of treatment
  mean tumor size: 1417+/−222 mm^3
LNCaP cells [8]; CSS condition
  % of total cells, G0/G1: 70.1%
  % of total cells, G2/M: 4.4%
  % of total cells, S: 3.8%
  % of total cells, Sub G0/G1: 21.7%
  subG0/G1 + G0/G1:S + G2/M: 11.2
LNCaP cells [8]; FBS condition
  % of total cells, G0/G1: 65.4%
  % of total cells, G2/M: 12.6%
  % of total cells, S: 11.2%
  subG0/G1 + G0/G1:S + G2/M: 3.2
LNCaP cells [8]; FBS condition, two days after treatment
  % of total cells, Sub G0/G1: 10.8%
LNCaP cells [9]
  cytotoxic effect on cell viability: dose-dependent cytotoxic effect
PC3 cells [10]
  % of total cells, G0/G1: 58.5%
  % of total cells, G2/M: 18.2%
  % of total cells, S: 13.7%
  % of total cells, Sub G0/G1: 9.6%
  subG0/G1 + G0/G1:S + G2/M: 2.1
[11]
  insulin receptor IR-A, IR-B transcripts or IR-β protein levels: no effect
[12]
  IGF-IR expression, down-stream kinase signaling and induction of PARP cleavage versus oligofectamine-treated cells: indistinguishable

## N.N.[Cl][Pt][Cl] [Cisplatin]
Ptx-R PC3 cells [1]; standard culture conditions
  IC50: 24.7 nM
PC3 cells [2]; standard culture conditions
  IC50: 10 nM

## CC(=O)O[C@@]12CO[C@@H]1C[C@H](O)[C@@]1(C)C(=O)[C@H](O)C3=C(C)[C@@H](OC(=O)[C@H](O)[C@@H](NC(=O)OC(C)(C)C)c4ccccc4)C[C@@](O)([C@@H](OC(=O)c4ccccc4)[C@H]21)C3(C)C [Docataxel]
Ptx-R PC3 cells [1]; [13]
  IC50: 10 nM
PC3 cells [2]; [13]
  IC50: 0.827 nM

## 323733 (antisense CCATGGTGAGGGTCACAGCC; listed as DNA, chemistry not fully specified) [compound 323733]
Human IGF-IR mRNA
  %INHIB (human IGF-IR mRNA levels): 78%

## 175308 (antisense GTCGTCGGCCTCCATTTTCA; listed as DNA, chemistry not fully specified) [compound 175308]
Human IGF-IR mRNA
  inhibition of IGF-IR expression (lead compounds): demonstrated inhibition
  %INHIB (human IGF-IR mRNA levels): 94%

## 323762 (antisense GCCTTGTGTCCTGAGTGTCT; listed as DNA, chemistry not fully specified) [compound 323762]
Human IGF-IR mRNA
  inhibition of IGF-IR expression (lead compounds): demonstrated inhibition
  %INHIB (human IGF-IR mRNA levels): 84%

## 323744 (antisense CGTGGTTGCAGCTGTGGATA; listed as DNA, chemistry not fully specified) [compound 323744]
Human IGF-IR mRNA
  inhibition of IGF-IR expression (lead compounds): demonstrated inhibition
  %INHIB (human IGF-IR mRNA levels): 85%

## 323724 (antisense GGTCCAGCAGCGGTAGTTGT; listed as DNA, chemistry not fully specified) [compound 323724]
Human IGF-IR mRNA
  %INHIB (human IGF-IR mRNA levels): 60%

## 323714 (antisense ATGTAGTTATTGGACACCGC; listed as DNA, chemistry not fully specified) [compound 323714]
Human IGF-IR mRNA
  %INHIB (human IGF-IR mRNA levels): 64%

## 323740 (antisense CCACTCTGCTCTCAAAGAAA; listed as DNA, chemistry not fully specified) [compound 323740]
Human IGF-IR mRNA
  %INHIB (human IGF-IR mRNA levels): 0%

## 323703 (antisense GTCCTCGGCCTTGGAGATGA; listed as DNA, chemistry not fully specified) [compound 323703]
Human IGF-IR mRNA
  %INHIB (human IGF-IR mRNA levels): 71%
